Columns and labels:
MALME-3M = assay: Cytotoxicity assay, lysis of human tumors by H3 and H7 specific CTL; format: cell-based; set-up: scale not given here; conditions: Melanoma, A2 +, Her-2 +
Method: (§1) […] target cells were incubated at 37° C. with […] of sodium ^51Cr chromate for 90 minutes in the presence or absence of specific peptide. Cells were washed three times and resuspended in 5% RPMI. For the assay, […] ^51Cr-labeled target cells were incubated with different concentrations of effector cells in a final volume of […] in U-bottomed 96-well plates. Supernatants were removed after 4-7 hrs at 37° C., and the percent specific lysis was determined by the following formula: [formula]
(§2) Tumor cells were preincubated for 24 hours prior to the assay in media supplemented with γ-interferon (γ-IFN, 20 ng/ml) plus tumor necrosis factor-α (TNF-α, 3 ng/ml). It is known that such pretreatment of tumor cells increases the expression of MHC I and adhesion molecules such as ICAM I on the surface of the cell thus enhancing their sensitivity to lysis by CTL. (See, e.g., Fisk, et al., Lympho. & Cytokine Res. 13: 125-131 (1994); Fady, et al., Cancer Immunol. Immunother. 37: 329-336 (1993).)

JY = assay: as above; format: cell-based; set-up: scale not given here; conditions: Lymphoma, A2 +, Her-2 −
Method: as §1, §2

MDA.MB435 = assay: as above; format: cell-based; set-up: scale not given here; conditions: Breast, A2 −, Her-2 +
Method: as §1, §2

Hep-G2 = assay: as above; format: cell-based; conditions: Hepatoma, A2 +
Method: as §1, §2

BT549 = assay: as above; format: cell-based; conditions: Breast, A2 +
Method: as §1, §2

LG-2 = assay: as above; format: cell-based; conditions: EBV-trans., A2 +, Her-2 −
Method: as §1, §2

SKMEL-5 = assay: as above; format: cell-based; conditions: Melanoma, A2 +, Her-2 +
Method: as §1, §2

CASKI = assay: as above; format: cell-based; conditions: Cervix, A2 +, Her-2 +
Method: as §1, §2

MDA.M8231 = assay: as above; format: cell-based; conditions: Breast, A2 +
Method: as §1, §2

U2-OS = assay: as above; format: cell-based; conditions: Osteosarcoma, A2 +, Her-2 +
Method: as §1, §2

MCF-7 = assay: as above; format: cell-based; conditions: Breast, A2 +
Method: as §1, §2

U87G = assay: as above; format: cell-based; conditions: Glioblastoma, A2 +
Method: as §1, §2

SAOS.175 = assay: as above; format: cell-based; conditions: Osteosarcoma, A2 +, Her-2 +
Method: as §1, §2

OVCAR-5 = assay: as above; format: cell-based; conditions: Ovarian, A2 +, Her-2 +
Method: as §1, §2

NCI.H1355 = assay: as above; format: cell-based; conditions: Lung, A2 +
Method: as §1, §2

SV80 = assay: as above; format: cell-based; conditions: Fibroblast, A2 +, Her-2 −
Method: as §1, §2

T98G = assay: as above; format: cell-based; conditions: Glioblastoma, A2 +, Her-2 +
Method: as §1, §2

ST486 = assay: as above; format: cell-based; conditions: Lymphoma, A2 +, Her-2 −
Method: as §1, §2

SW480 = assay: as above; format: cell-based; conditions: Colon, A2 +
Method: as §1, §2

[1] = system: A2.1/K^b×CD8 or A2.1 transgenic (Tg) mice; assay: Immunization of transgenic mice with Her-2/neu peptides, cytotoxicity against peptide-pulsed T2-A2.1/K^b; format: in vivo; conditions: A2.1/K^b×CD8 or A2.1 Tg mice
Method: A2.1/K^b×CD8 and/or A2.1 transgenic mice were immunized with each of the peptides listed in Table 6 to determine if they could stimulate A2.1-restricted CTL. Mice were immunized with a mixture of 100 mg of the Her-2/neu peptide with 120 mg “helper” peptide in 100 ml Incomplete Freund's Adjuvant (IFA).
A2.1/K^b×CD8 or A2.1 lipopolysaccharide (LPS) -blasts were prepared as stimulators for in vitro restimulation of spleen cells from immunized mice. These were prepared by incubating splenocytes from A2/K^b or A2.1 mice in complete RPMI containing 25 mg/ml LPS and 7 mg/ml dextran sulfate at 1.5×10^6 cells/ml in a total volume of 30 ml for 3 days. […] Six days following in vitro restimulation, the CTL populations were assayed for lytic activity against T2-A2/K^b target cells preincubated with the peptide used for stimulation (15 mM). The resultant Her-2/neu peptide-specific CTL populations were maintained in vitro by weekly restimulation. […]
Spleen cells from injected animals were restimulated in vitro with irradiated syngeneic cells pulsed with the peptide used for in vivo priming. Immunogenicity was evaluated by assaying these cultured cells for cytotoxicity against T2-A2.1/K^b target cells pulsed with the priming peptide. […]

[2] = + CYT (γ-IFN 20 ng/ml plus TNF-α 3 ng/ml, 24 hours)

## VMAGVGSPYV [Peptide H7]
MALME-3M; [2]
  Killing of Tumors Expressing Her-2/neu: 14
MALME-3M; without cytokines
  Killing of Tumors Expressing Her-2/neu: 4
JY; [2]
  Killing of Tumors Expressing Her-2/neu: 2
JY; without cytokines
  Killing of Tumors Expressing Her-2/neu: 4
MDA.MB435; [2]
  Killing of Tumors Expressing Her-2/neu: 1
MDA.MB435; without cytokines
  Killing of Tumors Expressing Her-2/neu: 1
Hep-G2; [2]
  Killing of Tumors Expressing Her-2/neu: 29
Hep-G2; without cytokines
  Killing of Tumors Expressing Her-2/neu: 4
BT549; [2]
  Killing of Tumors Expressing Her-2/neu: 36
BT549; without cytokines
  Killing of Tumors Expressing Her-2/neu: 2
LG-2; [2]
  Killing of Tumors Expressing Her-2/neu: 3
LG-2; without cytokines
  Killing of Tumors Expressing Her-2/neu: 1
SKMEL-5; [2]
  Killing of Tumors Expressing Her-2/neu: 40
SKMEL-5; without cytokines
  Killing of Tumors Expressing Her-2/neu: 16
CASKI; [2]
  Killing of Tumors Expressing Her-2/neu: 20
CASKI; without cytokines
  Killing of Tumors Expressing Her-2/neu: 9
MDA.M8231; [2]
  Killing of Tumors Expressing Her-2/neu: 89
MDA.M8231; without cytokines
  Killing of Tumors Expressing Her-2/neu: 26
U2-OS; [2]
  Killing of Tumors Expressing Her-2/neu: 62
U2-OS; without cytokines
  Killing of Tumors Expressing Her-2/neu: 30
MCF-7; [2]
  Killing of Tumors Expressing Her-2/neu: 40
MCF-7; without cytokines
  Killing of Tumors Expressing Her-2/neu: 7
U87G; [2]
  Killing of Tumors Expressing Her-2/neu: 1
U87G; without cytokines
  Killing of Tumors Expressing Her-2/neu: 1
SAOS.175; [2]
  Killing of Tumors Expressing Her-2/neu: 35
SAOS.175; without cytokines
  Killing of Tumors Expressing Her-2/neu: 27
OVCAR-5; [2]
  Killing of Tumors Expressing Her-2/neu: 23
OVCAR-5; without cytokines
  Killing of Tumors Expressing Her-2/neu: 13
NCI.H1355; [2]
  Killing of Tumors Expressing Her-2/neu: 62
NCI.H1355; without cytokines
  Killing of Tumors Expressing Her-2/neu: 13
SV80; [2]
  Killing of Tumors Expressing Her-2/neu: 2
SV80; without cytokines
  Killing of Tumors Expressing Her-2/neu: 2
T98G; [2]
  Killing of Tumors Expressing Her-2/neu: 93
T98G; without cytokines
  Killing of Tumors Expressing Her-2/neu: 29
ST486; [2]
  Killing of Tumors Expressing Her-2/neu: 8
ST486; without cytokines
  Killing of Tumors Expressing Her-2/neu: 5
SW480; [2]
  Killing of Tumors Expressing Her-2/neu: 17
SW480; without cytokines
  Killing of Tumors Expressing Her-2/neu: 2
[1]
  ability to stimulate a CTL response in Tg mice, in words: able to stimulate a CTL response

— patent publication US20030022820A1, “IN VIVO ACTIVATION OF TUMOR-SPECIFIC CYTOTOXIC T CELLS” (priority 1995, published 2003)
